Columns and labels:
[1] = test system: Wnt signaling target genes in human iPS cells; test: Gene expression analysis by DNA array and quantitative polymerase chain reaction; assay type: cell-based; conditions: FIG. 9
Experimental: (in the order of the genes whose expression were reduced most 12 hours later) HOXA1, MSGN1, NKD1, T, TNFRSF11B, DKK1, DKK4, CDX2, MSX1, NODAL, FGF4, PAPPA, PRRX1, LRAT, CYP1B1, SLC34A2, AXIN2, LGL1, SPS, MIXL1, APCDD1 and DSEL. […] The analyzed genes were as follows: MSGN1, HOXA1; T, MIXL1; Dkk1, AXIN2; NODAL and FGF4 (all known as Wnt signaling target genes).

Monkey ES cells = test: Cardiac muscle cell differentiation of monkey ES cells, 6-well plate, GFP expression observed at day 14; assay type: cell-based; conditions: for effect of BIO on the compound's effect of cardiac muscle cell differentiation (GFP expression): BIO 5 μM added together with the compound during day 4 to 10; for effect of BIO on the compound's effect of cardiac muscle cell differentiation (GFP expression) / increase in the GFP expression level: GFP at day 14
Excerpt: In the same manner as Example 2, the effects of promoting cardiac muscle cell differentiation were compared among KY02111 and N11474, known Wnt signaling inhibitors (IWP2, XAV939 and IWR1), proteins known to be effective in promoting cardiac muscle cell differentiation (G-CSF, IGFBP4, Dkk1 and cytokines (a mixture of bFGF, BMP4, VEGF, DKK1 and Activin A)).
The effect of BIO, a Wnt signaling activator, on the effect of promoting cardiac muscle cell differentiation of KY02111, XAV939 and IWP2 was analyzed. […]

Human iPS (IMR90-4) = test: Number of beating colonies of cardiac muscle cells; assay type: cell-based; conditions: N11474 10 μM during day 4 to 14
Experimental: (§1) The effect of promoting differentiation of each of the ES/iPS cells into cardiac muscle cells were confirmed for N11474 and KY02111 with the GFP expression level and number of beating colonies used as the indicators. Human ES cell line (Kh-1 line) (Suemori, H., et al., Efficient establishment of human embryonic stem cell lines and long-term maintenance with stable karyotype by enzymatic bulk passage. Biochem Biophys Res Commun. 345(3), 926-32 (2006)) (incorporated herein by reference) was seeded in a 6-well plate (Asahi Glass/5816-006: Ezview culture plate) in 1.2×10^6 cells/well and cultured for 22 days, with BMP4 (10 ng/ml) added during day 0 to 4 of culture and N11474 (10 μM) or KY02111 (5 μM) added during day 4 to 14 of culture. Human iPS cell lines (253G1, IMR90-1, IMR90-4 and RCHIPC0003) (Takahashi, K., et al., Induction of pluripotent stem cells from adult human fibroblasts by defined factors. Cell. 131(5), 861-72 (2007); Yu, J., et al., Induced pluripotent stem cell lines derived from human somatic cells. Science. 318(5858), 1917-20 (2007)) (these references are herein incorporated by reference) were cultured for the cardiac muscle cell differentiation in the same manner as for the human ES cells. The cardiac muscle cells from mouse ES cells (R1) were differentiated in accordance with the method described in the reference (Transient inhibition of BMP signaling by Noggin induces cardiomyocyte differentiation of mouse embryonic stem cells. Yuasa S, et al. Nat. Biotechnol. 2005 May; 23(5): 607-11; incorporated herein by reference). KY02111 (5 μM) was added for 3 days during day 6 to 9 of cardiac muscle cell differentiation culture and the beating colonies of cardiac muscle cells were analyzed at day 9. Monkey ES cells (CMK6.4) were cultured for cardiac muscle cell differentiation in the same manner as in the above (2).

[2] = test system: monkey ES cell line (CMK 6.4 cynomolgus monkey ES cells); test: Screening of library compounds: GFP expression under alpha-MHC promoter, 96-well plates; assay type: cell-based; conditions: about 1 to 5 μM compound/well during day 6 to 14; HCS system
Experimental: A vector expressing green fluorescent protein (GFP) under control of promoter of α-MHC gene, a marker of cardiac muscle cell differentiation, was introduced into monkey ES cell line (CMK 6.4 cynomolgus monkey ES cells) and the cells were seeded on 96-well culture plates (Greiner/655090: 96 well FIA black plate) in 5.0×10^3 cells/well, and cultured for 14 days in an IMDM-based differentiation medium for cardiac muscle cells (200 ml. IMDM (Sigma 13390) containing 50 ml bovine fetal serum (GIBCO 10099-141), 2.5 ml MEM non-essential amino acid solution (Sigma M7145), 2.5 ml penicillin-streptomycin (GIBCO 15140), 2.5 ml 200 mM L-glutamine, 2 μl 2-mercaptoethanol (Sigma M7522), 255 μl 5N NaOH). During day 6 to 14 of culture, 9,600 library compounds were added into separate wells (about 1 to 5 μM compound/well). Then, at […] of culture, GFP expression level was determined by using HCS (high contents screening) system (Molecular device/MetaMorph imaging system).

[3] = test system: Human ES cell line (Kh-1 line); test: Cardiac muscle cell differentiation (GFP expression level, number of beating colonies); assay type: cell-based; conditions: N11474 10 μM during day 4 to 14
Experimental: as §1, with “The cardiac muscle cells from mouse ES cells (R1) were differentiated in accordance with the method described in the reference (Transient inhibition of BMP signaling by Noggin induces cardiomyocyte differentiation of mouse embryonic stem cells. Yuasa S, et al. Nat. Biotechnol. 2005 May; 23(5): 607-11; incorporated herein by reference).” left out, “Monkey ES cells (CMK6.4) were cultured for cardiac muscle cell differentiation in the same manner as in the above (2).” left out

[4] = Solubility in medium (observation of crystals); assay type: physicochemical; conditions: after 24 hours
Experimental: SO2031 (KY02-I) was dissolved in 20% serum-containing medium (200 ml IMDM (Sigma) containing 50 ml bovine fetal serum (GIBCO), 2.5 ml MEM non-essential amino acid solution (Sigma), 2.5 ml penicillin-streptomycin (GIBCO), 2.5 ml 200 mM L-glutamine, 2 μl 2-mercaptoethanol) at 20 μM, and in serum-free medium (200 ml IMDM (Sigma) containing 2.5 ml MEM non-essential amino acid solution (Sigma), 2.5 ml penicillin-streptomycin (GIBCO), 2.5 ml 200 mM L-glutamine, 2 μl 2-mercaptoethanol) at 3 or 20 μM and observed after 24 hours (FIG. 20). […] As the compound is not crystallized, the concentration of the compound in the medium is stably maintained. Also, there is no possibility that the crystals affect the cells, and there is no risk that the crystals remained in the cells are transferred to and affect the host at transplantation.

[5] = test system: monkey ES cells (CMK 6.4 cynomolgus monkey ES cell line); test: Cardiac muscle cell differentiation of monkey ES cells, compound day 4 to 8, GFP fluorescence at day 10 (MetaMorph); assay type: cell-based; conditions: for effect of promoting cardiac muscle cell differentiation, SO2031 versus SO3042: 0.4 μM and 2 μM, separate experiment; for effect of promoting cardiac muscle cell differentiation, carbon chain length (n) series: FIG. 16; for effect compared to SO3031 (KY01-I): low dose (0.1 μM)
Excerpt: Compounds substituted at the position R7 of Formula 1, which corresponds to Cl of KY02111, were synthesized and examined for the effect of promoting cardiac muscle cell differentiation in a dose-dependent manner in monkey ES cells as described in Example 2. Specifically, a vector expressing green fluorescent protein (GFP) under control of promoter of α-MHC gene, a marker of cardiac muscle cell differentiation, was introduced into monkey ES cells (CMK 6.4 cynomolgus monkey ES cell line) and the cells were seeded on 6-well culture plates (Asahi Glass/5816-006: Ezview culture plate) in 4.0×10^5 cells/well, and cultured in an IMDM-based differentiation medium for cardiac muscle cells (200 ml IMDM (Sigma) containing 50 ml bovine fetal serum (GIBCO), 2.5 ml MEM non-essential amino acid solution (Sigma), 2.5 ml penicillin-streptomycin (GIBCO), 2.5 ml 200 mM L-glutamine, 2 μl 2-mercaptoethanol). Each compound was added to the cells during day 4 to day 8 of the cardiac muscle cell differentiation culture, and the GFP fluorescence was analyzed at day 10 by using MetaMorph imaging system.

human ES cells (KhES-3) = test: Percentage of cardiac muscle cells by flow cytometry with cardiac troponin T (cTnT) antibody; assay type: cell-based; conditions: 2 μM during days 3-8; 3 μM CHIR99021 first two days; without compound 17.9%
Experimental: (§2) The effect of promoting cardiac muscle cell differentiation of SO2031 (KY02-I) was confirmed using human ES cells (KhES-3) and iPS cells (IMR90-1) (FIG. 19). Induction of cardiac muscle cell differentiation was performed as described previously (Cell Reports, Volume 2, Issue 5, 1448-1460, 25 Oct. 2012). Specifically, IMDM (Sigma) containing 1% MEM non-essential amino acid solution (Sigma), 1% penicillin-streptomycin (Gibco), 2 mM L-glutamine (Sigma), 0.5 mM L-carnitine (Sigma), 0.001% 2-mercaptoethanol (Gibco), and 0.4% human serum albumin (Sigma) was used for culture. Cardiac muscle cell differentiation was induced in Ultra-low attachment culture dish (Corning) by floating culture. During the first two days, 3 μM CHIR99021, a WNT activator, was added, and during days 3-8 of culture, 2 μM SO2031 (KY02-I) was added. Efficiency of cardiac muscle cell differentiation was determined by calculating the percentage of cardiac muscle cells by flow cytometry using an antibody for cardiac troponin T (cTnT), a cardiac-specific marker molecule.

[6] = test system: human iPS cells (IMR90-1); test: as above; assay type: cell-based; conditions: 2 μM during days 3-8; 3 μM CHIR99021 first two days; without compound 3.7%
Experimental: as §2

[7] = nitrovin 1 μM during day 8 to 12, singly

O=C1Nc2cc(Br)ccc2/C1=C1/Nc2ccccc2/C1=N\O [BIO, reference compound]
expressions of MSGN1, HOXA1, T, MIXL1, Dkk1, AXIN2, NODAL and FGF4 (Wnt signaling target genes) by qPCR [1]: increased

Cc1ccc2nc(NC(=O)CSc3nc4c(c(=O)n3-c3ccccc3)SCC4)sc2c1 [IWP2, reference compound]
effect of BIO on the compound's effect of cardiac muscle cell differentiation (GFP expression) (Monkey ES cells): inhibited | expressions of MSGN1, HOXA1, T, MIXL1, Dkk1, AXIN2, NODAL and FGF4 (Wnt signaling target genes) by qPCR [1]: reduced

COc1ccc(CCC(=O)Nc2nc3ccc([N+](=O)[O-])cc3s2)cc1OC [KY01042, 2-(3-(3,4-dimethoxyphenyl)propanamide)-6-nitrobenzothiazole]
increase in the GFP expression level (Monkey ES cells; 10 μM during day 4 to 10): 7000%

COc1ccc2nc(NC(=O)Cc3ccc(OC)c(OC)c3)sc2c1 [N11474]
Beating cardiac muscle cell differentiation efficiency (Control (DMSO) = 100%) (Human iPS (IMR90-4)): 4000% (N11474) | increase in the GFP expression level (Monkey ES cells; 10 μM during day 4 to 10): 1000% | GFP expression level [2]: high GFP expression levels | Beating cardiac muscle cell differentiation efficiency (Control (DMSO) = 100%) ([3]; Human ES (Kh-1)): 1100% (N11474) | GFP expression level ([3]; at day 14 and after of culture, FIG. 6): significant increase

COc1ccc(CCC(=O)Nc2nc3ccc(I)cc3s2)cc1OC [SO2031, 2-(3-(3,4-dimethoxyphenyl)propanamid)-6-iodobenzothiazole]
crystals in medium ([4]; 20% serum-containing medium at 20 μM, serum-free medium at 3 or 20 μM): Large crystals were not observed | crystals in medium ([4]; serum-free medium, 3 μM): almost no crystal was observed | effect of promoting cardiac muscle cell differentiation, times higher than that of KY02111 ([5]; 0.1 μM): about 16 times | effect of promoting cardiac muscle cell differentiation, times higher than that of SO087 ([5]; 0.1 μM): about 5.2 times | effect of promoting cardiac muscle cell differentiation, SO2031 versus SO3042 ([5]; 0.1 μM, FIG. 17): comparable effect | effect of promoting cardiac muscle cell differentiation, times higher than that of KY02111 ([5]; 1 μM): ~6.3 times | effect of promoting cardiac muscle cell differentiation, times higher than that of SO087 ([5]; 1 μM): ~2 times | effect of promoting cardiac muscle cell differentiation, times higher than that of KY02111 ([5]; 10 μM): ~2.1 times | effect of promoting cardiac muscle cell differentiation, times higher than that of SO087 ([5]; 10 μM): ~1.6 times | effect of promoting cardiac muscle cell differentiation, times higher than that of KY02111 ([5]; 30 μM): ~1.5 times | effect of promoting cardiac muscle cell differentiation, times higher than that of SO087 ([5]; 30 μM): ~1.1 times | effect of promoting cardiac muscle cell differentiation, carbon chain length (n) series [5]: higher effect compared to KY02111 | effect compared to SO3031 (KY01-I) [5]: 2.7 times | ratio of cardiac muscle cells (cTnT) (human ES cells (KhES-3)): 77.9% | ratio of cardiac muscle cells (cTnT) [6]: 56.8%

COc1ccc(CC(=O)Nc2nc3ccc(I)cc3s2)cc1OC [SO3031, 2-(2-(3,4-dimethoxyphenyl)acetamide)-6-iodobenzothiazole]
effect of promoting cardiac muscle cell differentiation, carbon chain length (n) series [5]: higher effect compared to KY02111

COc1ccc(CCCC(=O)Nc2nc3ccc(I)cc3s2)cc1OC [SO3042, 2-(4-(3,4-dimethoxyphenyl)butamide)-6-iodobenzothiazole]
effect of promoting cardiac muscle cell differentiation, SO2031 versus SO3042 ([5]; 0.1 μM, FIG. 17): comparable effect | effect of promoting cardiac muscle cell differentiation, carbon chain length (n) series [5]: higher effect compared to KY02111 | effect compared to SO2031 (KY02-I) ([5]; high dose (10 μM or 30 μM)): 1.3 times | effect of promoting cardiac muscle cell differentiation, SO3042 versus SO2031 ([5]; higher dose (10 μM), FIG. 17): slightly higher than that of SO2031 | effect compared to SO3031 (KY01-I) [5]: 2.8 times

Oc1nc(-c2ccc(C(F)(F)F)cc2)nc2c1CSCC2 [XAV939, reference compound]
effect of BIO on the compound's effect of cardiac muscle cell differentiation (GFP expression) (Monkey ES cells): inhibited | expressions of MSGN1, HOXA1, T, MIXL1, Dkk1, AXIN2, NODAL and FGF4 (Wnt signaling target genes) by qPCR [1]: reduced

N=C(N)NN=C(/C=C/c1ccc([N+](=O)[O-])o1)/C=C/c1ccc([N+](=O)[O-])o1 [nitrovin, reference compound]
increase in the GFP expression level (Monkey ES cells; 5 μM during day 8 to 14): about 400% | increase in the GFP expression level versus Control (DMSO) (Monkey ES cells; [7]): about 3 times | proportion of beating colonies (Monkey ES cells; [7]): about 16% | ratio of number of GFP colonies (Monkey ES cells; [7]): about 22%

B1: G-CSF: granulocyte-colony stimulating factor (protein, UniProt P09919 31-207, looked up)
Granulocyte …: TPLGPASSLPQSFLLKCLEQVRKIQGDGAALQEKLVSECATYKLCHPEELVLLGHSLGIPWAPLSSCPSQALQLAGCLSQLHSGLFLYQGLLQALEGISPELGPTLDTLQLDVADFATTIWQQMEELGMAPALQPTQGAMPAFASAFQRRAGGVLVASHLQSFLEVSYRVLRHLAQP
increase in the GFP expression level (Monkey ES cells; 5 ng/ml during day 4 to 10): about 250%

Reference: patent US9499790B2, “Method for promoting differentiation of pluripotent stem cells into cardiac muscle cells” (Kyoto University, priority 2010, dated 2016)
